Measured values: article PMC4689406, “(R)-NODAGA-PSMA: A Versatile Precursor for Radiometal Labeling and Nuclear Imaging of PSMA-Positive Tumors” (PLoS ONE, 2015)

Key:
PSMA on LNCaP cells = molecular target: T1, PSMA on LNCaP cells (Homo sapiens, UniProt Q04609); assay: Saturation binding study on intact LNCaP cells; settings: 120 min at 4°C
T1 construct: host or cells: LNCaP cells
Protocol: The next day, the medium was removed, the cells washed and incubated for 1 h at 37°C with fresh binding buffer (RPMI Medium 1640-GlutaMAX containing 1% FBS, 100 U/mL penicillin and 100 μg/mL streptomycin, 50 mM Hepes, 50 μg/mL bacitracin, 0.5% BSA). Afterwards, the plates were placed on ice for 30 min followed by incubation with increasing concentrations of either ^68/natGa-CC34, ^64/natCu-CC34, ^111/natIn-CC34 and ^111/[…]-617 (1-100 nM) in phosphate-buffered saline binding buffer pH 7.4. After the addition of the radioligands, the cells were incubated for 120 min at 4°C. […] The cells were washed twice with ice-cold PBS, followed by solubilization with 1 N NaOH and the cell-associated radioactivity was measured using a gamma-counter. Specific binding was plotted against the total molar concentration of the added radiotracer. […] For all the cell studies the values are normalized for 1x10^6 cells per well and all data are from two independent experiments with triplicates in each experiment.

[1] = Lipophilicity (LogD, pH 7.4), shake-flask method; assay type: physicochemical; settings: octanol/PBS pH 7.4, shake-flask
Protocol: The lipophilicity (LogD, pH 7.4) was estimated by the “shake-flask” method (S3 Appendix).
The mixture was vortexed for 1 h to reach the equilibrium and then centrifuged (3000 rpm) for 10 min. From each phase, an aliquot (100 μL) was pipetted out and measured in a γ-counter. Each measurement was repeated five times. Care was taken to avoid cross-contamination between the phases. The partition coefficient was calculated as the average log ratio of the radioactivity in the organic fraction and the PBS fraction.

LNCaP xenografts = assay: Biodistribution in LNCaP xenografts; assay type: in vivo, Balb/C nude mice; settings: for Adrenal (biodistribution) / Blood (biodistribution) / Heart (biodistribution) / Intestine (biodistribution) / Kidney (biodistribution) / LNCaP-tumor (tumor uptake, biodistribution) / Lung (biodistribution) / Muscle (biodistribution) / Pancreas (biodistribution) / Spleen (biodistribution) / Stomach (biodistribution) / Bone (biodistribution) / Liver (biodistribution) / Tumor/blood / Tumor/kidney / Tumor/muscle: 10 pmol i.v., LNCaP mice; for Tumor/blood / Tumor/kidney / Tumor/muscle: ratio
Protocol: Female athymic Balb/C nude mice (age: 4–6 weeks, weight: 17–20 g) were purchased from Janvier, France. […] All animal experiments were conducted in strict accordance with the recommendations in the Guide for the Care and Use of Laboratory Animals of the National Institutes of Health. […]

[2] = 1 h p.i. blocked (co-injected 20 nmol PMPA)

T1 sequence (Q04609 whole entry): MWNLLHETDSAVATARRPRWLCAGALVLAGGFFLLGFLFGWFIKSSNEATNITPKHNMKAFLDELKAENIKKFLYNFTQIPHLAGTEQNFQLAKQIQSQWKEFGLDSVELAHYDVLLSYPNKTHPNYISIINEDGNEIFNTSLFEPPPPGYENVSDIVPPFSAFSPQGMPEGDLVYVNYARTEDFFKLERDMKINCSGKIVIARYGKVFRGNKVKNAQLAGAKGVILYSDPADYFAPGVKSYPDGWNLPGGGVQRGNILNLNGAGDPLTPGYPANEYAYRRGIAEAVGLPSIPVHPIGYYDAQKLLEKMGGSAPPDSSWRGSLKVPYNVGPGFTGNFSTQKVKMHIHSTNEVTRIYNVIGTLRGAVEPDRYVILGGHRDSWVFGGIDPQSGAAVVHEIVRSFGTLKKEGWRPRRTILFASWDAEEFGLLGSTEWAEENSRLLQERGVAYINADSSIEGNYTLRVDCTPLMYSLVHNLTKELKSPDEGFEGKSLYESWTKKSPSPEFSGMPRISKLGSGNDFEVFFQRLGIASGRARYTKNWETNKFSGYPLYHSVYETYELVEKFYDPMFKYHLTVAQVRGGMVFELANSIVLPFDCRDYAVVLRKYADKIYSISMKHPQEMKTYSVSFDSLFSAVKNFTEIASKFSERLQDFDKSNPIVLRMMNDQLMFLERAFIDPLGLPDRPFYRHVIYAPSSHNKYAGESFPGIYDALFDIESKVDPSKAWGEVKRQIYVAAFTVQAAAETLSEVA

Structure (SMILES): O=C([O-])CN(CCN(CC(=O)[O-])Cc1cc(CCC(=O)NCCCCCC(=O)NCCCC[C@H](NC(=O)N[C@@H](CCC(=O)O)C(=O)O)C(=O)O)ccc1[O-])Cc1cc(CCC(=O)O)ccc1[O-].[68Ga+3].[OH3+] [^68Ga-HBED-CC-PSMA, HBED-CC-Ahx-Lys-NH-CO-NH-Glu]
- Bmax (maximum number of binding sites) (PSMA on LNCaP cells): 0.41 ± 0.02 nM
- Kd (PSMA on LNCaP cells; non-specific binding with 1 μM PMPA, read-out: Kd (dissociation constant)): 2.9 ± 0.6 nM
- LogDoctanol/PBS [1]: -4.06 ± 0.10
- Adrenal (biodistribution) (LNCaP xenografts; [2]): 1.1±0.5 %IA/g
- Blood (biodistribution) (LNCaP xenografts; [2]): 0.4±0.04 %IA/g
- Heart (biodistribution) (LNCaP xenografts; [2]): 0.2±0.06 %IA/g
- Intestine (biodistribution) (LNCaP xenografts; [2]): 0.3±0.04 %IA/g
- Kidney (biodistribution) (LNCaP xenografts; [2]): 11±3 %IA/g
- LNCaP-tumor (tumor uptake, biodistribution) (LNCaP xenografts; [2]): 4.1±1.2 %IA/g
- Lung (biodistribution) (LNCaP xenografts; [2]): 0.7±0.2 %IA/g
- Muscle (biodistribution) (LNCaP xenografts; [2]): 0.2±0.1 %IA/g
- Pancreas (biodistribution) (LNCaP xenografts; [2]): 0.3±0.04 %IA/g
- Spleen (biodistribution) (LNCaP xenografts; [2]): 2.1±0.06 %IA/g
- Stomach (biodistribution) (LNCaP xenografts; [2]): 0.3±0.01 %IA/g
- Adrenal (biodistribution) (LNCaP xenografts; 1 h p.i.): 23±4 %IA/g
- Blood (biodistribution) (LNCaP xenografts; 1 h p.i.): 0.2±0.04 %IA/g
- Bone (biodistribution) (LNCaP xenografts; 1 h p.i.): 0.5±0.05 %IA/g
- Heart (biodistribution) (LNCaP xenografts; 1 h p.i.): 0.6±0.06 %IA/g
- Intestine (biodistribution) (LNCaP xenografts; 1 h p.i.): 0.5±0.1 %IA/g
- Kidney (biodistribution) (LNCaP xenografts; 1 h p.i.): 208±4 %IA/g
- LNCaP-tumor (tumor uptake, biodistribution) (LNCaP xenografts; 1 h p.i.): 15.8±1.4 %IA/g
- Liver (biodistribution) (LNCaP xenografts; 1 h p.i.): 0.4±0.01 %IA/g
- Lung (biodistribution) (LNCaP xenografts; 1 h p.i.): 3.5±0.2 %IA/g
- Muscle (biodistribution) (LNCaP xenografts; 1 h p.i.): 0.6±0.06 %IA/g
- Pancreas (biodistribution) (LNCaP xenografts; 1 h p.i.): 1.4±0.3 %IA/g
- Spleen (biodistribution) (LNCaP xenografts; 1 h p.i.): 31±6 %IA/g
- Stomach (biodistribution) (LNCaP xenografts; 1 h p.i.): 0.7±0.1 %IA/g
- Adrenal (biodistribution) (LNCaP xenografts; 2 h p.i.): 23±0.8 %IA/g
- Bone (biodistribution) (LNCaP xenografts; 2 h p.i.): 0.4±0.2 %IA/g
- Heart (biodistribution) (LNCaP xenografts; 2 h p.i.): 0.6±0.02 %IA/g
- Intestine (biodistribution) (LNCaP xenografts; 2 h p.i.): 0.5±0.2 %IA/g
- Kidney (biodistribution) (LNCaP xenografts; 2 h p.i.): 211±29 %IA/g
- LNCaP-tumor (tumor uptake, biodistribution) (LNCaP xenografts; 2 h p.i.): 14.8±2.2 %IA/g
- Liver (biodistribution) (LNCaP xenografts; 2 h p.i.): 0.4±0.05 %IA/g
- Lung (biodistribution) (LNCaP xenografts; 2 h p.i.): 3.2±0.2 %IA/g
- Muscle (biodistribution) (LNCaP xenografts; 2 h p.i.): 0.6±0.2 %IA/g
- Pancreas (biodistribution) (LNCaP xenografts; 2 h p.i.): 2±0.5 %IA/g
- Spleen (biodistribution) (LNCaP xenografts; 2 h p.i.): 29±2 %IA/g
- Stomach (biodistribution) (LNCaP xenografts; 2 h p.i.): 1±0.6 %IA/g
- reduction of the tumor uptake (blocking) (LNCaP xenografts; LNCaP tumor, 1 h p.i., co-injection of 20 nmol PMPA): about 75%
- Tumor/blood (LNCaP xenografts; 1 h p.i.): 68±4
- Tumor/kidney (LNCaP xenografts; 1 h p.i.): 0.08±0.01
- Tumor/muscle (LNCaP xenografts; 1 h p.i.): 29±6
- Tumor/blood (LNCaP xenografts; 2 h p.i.): 83±15
- Tumor/kidney (LNCaP xenografts; 2 h p.i.): 0.07±0.02
- Tumor/muscle (LNCaP xenografts; 2 h p.i.): 24±3
